Experiments:
[1] = test system: Mouse-derived myoblast line C2C12 cell; test: Cell differentiation promoting activity in myoblast (creatine kinase activity); format: cell-based; details: 48 h, 1 μM compound, 2 days in differentiation medium, CK activity without compound = 100%, read-out: creatinine kinase activating action (%)
Method: • (1) Mouse-derived myoblast line C2C12 cell (Dainippon Pharmaceutical Co., Ltd.) was subcultured in a high glucose Eagle's modified Dulbecco's medium (GIBCO) containing 10% calf fetal bovine serum (GIBCO), 100 unit/mL penicillin and 100 μg/mL streptomycin (hereinafter to be referred to as a growth medium), plated at 5000 cells/cm^2 and cultured at 37° C., under 5% CO2. • (2) When the cells reached subconfluence, the medium was exchanged with a high glucose Eagle's modified Dulbecco's medium (GIBCO) containing 2% horse serum (GIBCO) and penicillin, streptomycin and a test compound (hereinafter to be referred to as a differentiation medium), and the cells were cultured for 2 days. To the control group was added DMSO solution instead of the test compound. • (3) The cells were washed with PBS, 0.5% NP-40 solution was added thereto, and the cells were lysed by freeze-thawing. The cell extract was centrifuged, and the creatine kinase activity in the supernatant was measured as an index of muscle differentiation. The creatine kinase activity was measured using CPKII Test Wako (Wako Pure Chemical Industries, Ltd.) according to the manual of the kit. The tests using the compounds of Example 7 to Example 14 were corrected based on the total protein amount measured using CA Protein Assay Kit (Thermo Scientific).
The numerical values in Table 3 show CK activity of the compound addition group with the CK activity without addition of the compound as 100%, and 1 μM of the compound was added for the measurement.

[2] = test system: NF-kB; test: NF-kB activation suppressive action in muscle cell (luciferase reporter, TNF-α induced); format: cell-based, mouse; details: TNF-α 10 ng/mL, activity without TNF-α = 1, n=8
Method: • (1) C2C12 cells introduced with NF-kB reporter plasmid (C2C12/NF-kB-luc, Panomics) was plated at 20000 cells/cm^2, 100 μg/ml hygromycin was added thereto, and the cells were cultured in a growth medium in the same manner as in Example 1. • (2) The cells were cultured in a differentiation medium containing the compound of Example 1, Example 8, Example 9, Example 10 or Example 11 for 1 hr, TNF-α was added thereto such that the concentration is 10 ng/mL, and the cells were cultured for 4 hr. • (3) The luciferase activity in the medium was measured using a Stedy-Glo luciferase assay system (Promega). The NF-kB activity was evaluated by measuring the luciferase activity.
The data in Table 6 to Table 10 show mean±standard deviation at n=8 (n is the number of samples).

Compound | activity at 1 µM [1] [%] | NF-κB activity (multiple) ([2]; 0.001 μM compound) | NF-κB activity (multiple) ([2]; 0.003 μM compound) | NF-κB activity (multiple) ([2]; 0.01 μM compound) | NF-κB activity (multiple) ([2]; 0.03 μM compound) | NF-κB activity (multiple) ([2]; 0.1 μM compound) | NF-κB activity (multiple) ([2]; 0.3 μM compound) | NF-κB activity (multiple) ([2]; 1 μM compound) | NF-κB activity (multiple) ([2]; 3 μM compound) | NF-κB activity (multiple) ([2]; 10 μM compound)
CS(=O)(=O)Cc1ccc(NC(=O)/C=C/c2cnccc2-c2ccc(F)cc2)cc1 [Example 7, (2E)-3-[4-(4-fluorophenyl)pyridin-3-yl]-N-{4-[(methylsulfonyl)methyl]phenyl}prop-2-enamide] | 197 |  |  |  |  |  |  |  |  | 
O=C(/C=C/c1cnccc1-c1ccc(F)cc1)Nc1ccc(Cn2cnc3ccccc32)cc1 [Example 8, (2E)-N-[4-(1H-benzimidazol-1-ylmethyl)phenyl]-3-[4-(4-fluorophenyl)pyridin-3-yl]prop-2-enamide] | 197 | 9.4 | 9.7 | 10.8 | 10.6 | 9.4 | 7.6 | 7.1 | 6.6 | 6.1
O=C(/C=C/c1cnccc1-c1ccc(F)cc1)Nc1ccc(Cn2ccnc2)cc1 [Example 9, (2E)-3-[4-(4-fluorophenyl)pyridin-3-yl]-N-[4-(1H-imidazol-1-ylmethyl)phenyl]prop-2-enamide] | 208 | 11.8 | 13.0 | 12.1 | 13.1 | 13.0 | 10.2 | 8.4 | 7.6 | 6.9
O=C(/C=C/c1cnccc1-c1ccc(F)cc1)Nc1ccc(OCc2nnco2)cc1 [Example 10, (2E)-3-[4-(4-fluorophenyl)pyridin-3-yl]-N-[4-(1,3,4-oxadiazol-2-ylmethoxy)phenyl]prop-2-enamide] | 164 | 10.0 | 10.2 | 10.5 | 10.5 | 9.6 | 7.8 | 7.5 | 6.9 | 6.2
CCOP(=O)(Cc1ccc(NC(=O)/C=C/c2cnccc2-c2ccccc2)cc1)OCC [Example 11, diethyl (4-{[(2E)-3-(4-phenylpyridin-3-yl)prop-2-enoyl]amino}benzyl)phosphonate] | 189 | 9.7 | 10.8 | 10.5 | 10.6 | 10.6 | 9.0 | 7.3 | 7.0 | 5.2
COP(=O)(Cc1ccc(NC(=O)/C=C/c2cnccc2-c2ccccc2)cc1)OC [Example 12, dimethyl (4-{[(2E)-3-(4-phenylpyridin-3-yl)prop-2-enoyl]amino}benzyl)phosphonate] | 189 |  |  |  |  |  |  |  |  | 
CCOP(=O)(Cc1ccc(NC(=O)/C=C/c2cnccc2-c2ccc(F)cc2)cc1)OCC [Example 13, diethyl [4-({(2E)-3-[4-(4-fluorophenyl)pyridin-3-yl]prop-2-enoyl}amino)benzyl]phosphonate] | 184 |  |  |  |  |  |  |  |  | 
COP(=O)(Cc1ccc(NC(=O)/C=C/c2cnccc2-c2ccc(F)cc2)cc1)OC [Example 14, dimethyl [4-({(2E)-3-[4-(4-fluorophenyl)pyridin-3-yl]prop-2-enoyl}amino)benzyl]phosphonate] | 205 |  |  |  |  |  |  |  |  | 

Reference: US8937055B2, “Heterocyclic ring compound having muscle cell or adipocyte differentiation regulating action” (Takeda Pharmaceutical Company Limited, priority 2010, dated 2015)
